From patent publication US8431563B2 (priority 2010, dated 2013)
pEC50, pIC50: −log10 of the molar value. Structures can show the parent of a compound that is named as a salt.

These molecules were tested against T1, interaction between glucokinase (GK) and glucokinase regulatory protein (GKRP) (Homo sapiens, UniProt Q14397) (assay: biochemical). Details: GK-GKRP IC50 (Binding), avi-tagged GKRP, GK-fluorescein, AlphaScreen beads.
T1 sequence (Q14397 1-625): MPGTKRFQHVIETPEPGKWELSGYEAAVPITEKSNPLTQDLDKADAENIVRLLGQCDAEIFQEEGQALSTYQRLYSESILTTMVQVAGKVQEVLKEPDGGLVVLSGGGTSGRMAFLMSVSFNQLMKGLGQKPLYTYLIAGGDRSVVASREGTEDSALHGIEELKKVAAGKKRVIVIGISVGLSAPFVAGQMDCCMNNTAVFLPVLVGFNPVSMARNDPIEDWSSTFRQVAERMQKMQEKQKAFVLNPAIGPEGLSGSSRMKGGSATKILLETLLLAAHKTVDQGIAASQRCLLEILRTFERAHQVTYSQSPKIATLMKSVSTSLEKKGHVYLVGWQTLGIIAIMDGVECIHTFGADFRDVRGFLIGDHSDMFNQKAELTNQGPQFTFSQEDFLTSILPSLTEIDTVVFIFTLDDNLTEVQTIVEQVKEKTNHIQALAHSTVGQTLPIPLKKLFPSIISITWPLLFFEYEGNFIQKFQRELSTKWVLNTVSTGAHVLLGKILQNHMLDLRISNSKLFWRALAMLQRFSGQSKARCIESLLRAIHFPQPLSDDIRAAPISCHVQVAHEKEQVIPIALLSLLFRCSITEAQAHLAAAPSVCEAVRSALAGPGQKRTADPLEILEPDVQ
Assay type: binding
Protocol: GK-GKRP Binding Assay Protocol
This assay is used to directly measure the interaction between glucokinase (GK) and glucokinase regulatory protein (GKRP). Begin by preparing the following solutions. Assay Buffer: 20 mM Tris, pH 7.5/0.05% BSA/1 mM DTT/1 μM sorbitol-6-phosphate. […] Combine the following reagents in a white 96-well half area plate. Pipette 14 μl of the diluted avi-tagged GKRP into each well. Add 1 μl of compound to be tested and incubate at room temperature for 20 minutes. After 20 minutes, add 5 μl of assay buffer containing 6 nM GK-fluorescein. […] Incubate in a dark room for 2 hours at room temperature. After 2 hours read the plate using an Envision plate reader (Perkin Elmer, Waltham Mass.).

Compared with `CC(O)(c1ccc(N2CCN(S(=O)(=O)c3cccs3)C[C@@H]2CNC2CC2)cc1)C(F)(F)F` (mixture of isomers) [Example 199, 2-(4-((2S)-2-((cyclopropylamino)methyl)-4-(2-thiophenylsulfonyl)-1-piperazinyl)phenyl)-1,1,1-trifluoro-2-propanol], `NCC#Cc1cc(C(O)(C(F)(F)F)C(F)(F)F)ccc1N1CCN(S(=O)(=O)c2cccs2)CC1` [Example 159, 2-(3-(3-amino-1-propyn-1-yl)-4-(4-(2-thiophenylsulfonyl)-1-piperazinyl)phenyl)-1,1,1,3,3,3-hexafluoro-2-propanol trifluoroacetate] is 0.43 log units lower in pIC50: 6.15 for the first, 5.72 for the second.

Same assay, conditions: avi-tagged GKRP, GK-fluorescein, AlphaScreen beads; read-out: GK-GKRP IC50 (Binding)

Going from “2-(4-((2S)-4-((5-amino-2-thiophenyl)sulfonyl)-2-(((3S)-3-methyl-4-morpholinyl)methyl)-1-piperazinyl)phenyl)-1,1,1,3,3,3-hexafluoro-2-propanol [Example 225]” to `O=S(=O)(c1ccccc1)N1CCN(c2ncc(C(O)(C(F)(F)F)C(F)(F)F)cn2)[C@@H](CN2C3COCC2C(O)C3)C1` (mixture of isomers) [Example 80, 8-(((2S)-4-(phenylsulfonyl)-1-(5-(2,2,2-trifluoro-1-hydroxy-1-(trifluoromethyl)ethyl)-2-pyrimidinyl)-2-piperazinyl)methyl)-3-oxa-8-azabicyclo[3.2.1]octan-6-ol], the pIC50 falls from 8.15 to 6.90 (1.25 log units).

`CN(Cc1cn(C)cn1)C[C@H]1CN(S(=O)(=O)c2cccs2)CCN1c1ccc(C(C)(O)C(F)(F)F)cc1` (mixture of isomers) [Example 121, 1,1,1-trifluoro-2-(4-((2S)-2-((methyl((1-methyl-1H-imidazol-4-yl)methyl)amino)methyl)-4-(2-thiophenylsulfonyl)-1-piperazinyl)phenyl)-2-propanol] and `CC(O)(c1ccc(N2CCN(S(=O)(=O)c3cccs3)C[C@@H]2CN2CCNC(=O)C2)cc1)C(F)(F)F` (mixture of isomers) [Example 179, 4-(((2S)-4-(2-thiophensulfonyl)-1-(4-(2,2,2-trifluoro-1-hydroxy-1-methylethyl)phenyl)-2-piperazinyl)methyl)-2-piperazinone] are within 0.2 log units of each other in pIC50: 6.28 for the first, 6.27 for the second.

`CC(O)(c1ccc(N2CCN(S(=O)(=O)c3cccs3)C[C@@H]2CN(C2CCC2)S(=O)(=O)c2cccnc2)cc1)C(F)(F)F` (mixture of isomers) [Example 213, N-cyclobutyl-N-(((2R)-4-(2-thiophenylsulfonyl)-1-(4-(2,2,2-trifluoro-1-hydroxy-1-methylethyl)phenyl)-2-piperazinyl)methyl)-3-pyridinesulfonamide] and `CC(c1ccccc1)N(C[C@H]1CN(S(=O)(=O)c2cccs2)CCN1c1ccc(C(C)(O)C(F)(F)F)cc1)S(C)(=O)=O` (mixture of isomers) [Example 222, N-(1-phenylethyl)-N-(((2R)-4-(2-thiophenylsulfonyl)-1-(4-(2,2,2-trifluoro-1-hydroxy-1-methylethyl)phenyl)-2-piperazinyl)methyl)methanesulfonamide] are within 0.2 log units of each other in pIC50: 6.03 for the first, 6.17 for the second.

Compared with `CCC(O)C#Cc1cc(C(O)(C(F)(F)F)C(F)(F)F)ccc1N1CCN(S(=O)(=O)c2cccs2)CC1` (racemic) [Example 154, 1-(2-(4-(2-thiophenylsulfonyl)-1-piperazinyl)-5-(2,2,2-trifluoro-1-hydroxy-1-(trifluoromethyl)ethyl)phenyl)-1-pentyn-3-ol], `CC(C)C(O)C#Cc1cc(C(O)(C(F)(F)F)C(F)(F)F)ccc1N1CCN(S(=O)(=O)c2cccs2)CC1` (racemic) [Example 156, 4-methyl-1-(2-(4-(2-thiophenylsulfonyl)-1-piperazinyl)-5-(2,2,2-trifluoro-1-hydroxy-1-(trifluoromethyl)ethyl)phenyl)-1-pentyn-3-ol] is 0.43 log units lower in pIC50: 5.97 for the first, 5.54 for the second.

Going from `COC(C#Cc1cc(C(O)(C(F)(F)F)C(F)(F)F)ccc1N1CCN(S(=O)(=O)c2cccs2)CC1)C(C)C` (racemic) [Example 157, 1,1,1,3,3,3-hexafluoro-2-(3-(3-methoxy-4-methyl-1-pentyn-1-yl)-4-(4-(2-thiophenylsulfonyl)-1-piperazinyl)phenyl)-2-propanol] to `CCC(O)C#Cc1cc(C(O)(C(F)(F)F)C(F)(F)F)ccc1N1CCC(S(=O)(=O)c2ccccc2)CC1` (racemic) [Example 162, 1-(2-(4-(phenylsulfonyl)-1-piperidinyl)-5-(2,2,2-trifluoro-1-hydroxy-1-(trifluoromethyl)ethyl)phenyl)-1-pentyn-3-ol], the pIC50 falls from 6.18 to 5.29 (0.89 log units). The first is the more potent here.

First: COc1cccc(CC2CN(S(=O)(=O)c3cccs3)CCN2c2ccc(C(O)(C(F)(F)F)C(F)(F)F)cc2)c1 (racemic) [Example 173, 1,1,1,3,3,3-hexafluoro-2-(4-(2-(3-methoxybenzyl)-4-(thiophen-2-ylsulfonyl)piperazin-1-yl)phenyl)-2-propanol]
Second: COc1ccc(CC2CN(S(=O)(=O)c3cccs3)CCN2c2ccc(C(O)(C(F)(F)F)C(F)(F)F)cc2)cc1 (racemic) [Example 175, 1,1,1,3,3,3-hexafluoro-2-(4-(2-(4-methoxybenzyl)-4-(thiophen-2-ylsulfonyl)piperazin-1-yl)phenyl)-2-propanol]
The pIC50 of the first is 0.73 log units higher: 6.27 for the first, 5.54 for the second.

`O=S(=O)(c1cccs1)N1CCN(c2ccc(C(O)(C(F)(F)F)C(F)(F)F)cc2)C(Cc2ccc(O)cc2)C1` (racemic) [Example 177, 4-((1-(4-(1,1,1,3,3,3-hexafluoro-2-hydroxypropan-2-yl)phenyl)-4-(thiophen-2-ylsulfonyl)piperazin-2-yl)methyl)phenol] and `CC(O)(c1ccc(N2CCN(S(=O)(=O)c3cccs3)C[C@@H]2C[S+]([O-])c2cccc(F)c2)cc1)C(F)(F)F` (single isomer, unassigned) [Example 189 Peak#2] are within 0.2 log units of each other in pIC50: 6.10 for the first, 6.14 for the second.

Compared with `CC(O)(c1ccc(N2CCN(S(=O)(=O)c3cccs3)C[C@@H]2C[S+]([O-])c2cccc(F)c2)cc1)C(F)(F)F` (single isomer, unassigned) [Example 189 Peak#3], `C[C@H]1COCCN1C[C@H]1CN(S(=O)(=O)c2cccs2)CCN1c1ccc(C(O)(C(F)(F)F)C(F)(F)F)cc1` [Example 132, 1,1,1,3,3,3-hexafluoro-2-(4-((2S)-2-(((3S)-3-methyl-4-morpholinyl)methyl)-4-(2-thiophenylsulfonyl)-1-piperazinyl)phenyl)-2-propanol] is 1.95 log units higher in pIC50: 6.27 for the first, 8.22 for the second.

`C[C@H]1CN(S(=O)(=O)c2cnc(N)s2)CCN1c1ncc(C(O)(C(F)(F)F)C(F)(F)F)cn1` [Example 147, 2-(2-((2S)-4-((2-amino-1,3-thiazol-5-yl)sulfonyl)-2-methyl-1-piperazinyl)-5-pyrimidinyl)-1,1,1,3,3,3-hexafluoro-2-propanol] and `CC(C)(C)OC(=O)NCC#Cc1cc(C(O)(C(F)(F)F)C(F)(F)F)ccc1N1CCN(S(=O)(=O)c2cccs2)CC1` [Example 158, tert-butyl (3-(2-(4-(2-thiophenylsulfonyl)-1-piperazinyl)-5-(2,2,2-trifluoro-1-hydroxy-1-(trifluoromethyl)ethyl)phenyl)-2-propyn-1-yl)carbamate] are within 0.2 log units of each other in pIC50: 6.00 for the first, 6.16 for the second.

The molecules below were run against T2, GKRP (Glucokinase Regulatory Protein) with human His-hepatic GK (Homo sapiens, UniProt Q14397) (assay: biochemical). Details: 13C-glucose-6-phosphate formation; 280 nM GKRP (10×), 30 nM GK (5×); read-out: GK-GKRP EC50 (LC MS/MS-2).
T2 sequence (Q14397 1-625): T1 sequence (Q14397 1-625)
Protocol: GKRP LC MS/MS-2 Biochemical Assay
This assay is used to directly measure the formation of ^13C-glucose-6-phosphate from ^13C-glucose by LC MS/MS. Begin by preparing the following solutions: Compound Buffer (CB): 50 mM Tris, pH 7.5/4 mM MgCl2/6% DMSO/fresh 10 mM DTT from 1M frozen stock. Enzyme Buffer (EB): 50 mM Tris, pH 7.5/4 mM MgCl2/6% DMSO/fresh 0.1% BSA/fresh 0.01% Brij-35 (10% BSA and 1% Brij-35 stock). GK (Glucokinase) Working Stock (5×): Dilute human His-hepatic GK to 30 nM in EB buffer. […] After 30 minutes add 10 μl of GK Working Stock (5×). Re-seal the plate and incubate for another 30 minutes at room temperature while mixing. After the second 30 minutes, stop the reaction by the addition of 50 μl of 100% acetonitrile, seal, and mix for 5-10 minutes. Run 10 μl of this sample through the LC MS/MS (API 3200, Applied Biosystems, Carlsbad, Calif.).

First: 2-(4-((2S)-4-((5-amino-2-thiophenyl)sulfonyl)-2-(((3S)-3-methyl-4-morpholinyl)methyl)-1-piperazinyl)phenyl)-1,1,1,3,3,3-hexafluoro-2-propanol [Example 225]
Second: O=S(=O)(c1ccccc1)N1CCN(c2ncc(C(O)(C(F)(F)F)C(F)(F)F)cn2)[C@@H](CN2C3COCC2C(O)C3)C1 (mixture of isomers) [Example 80, 8-(((2S)-4-(phenylsulfonyl)-1-(5-(2,2,2-trifluoro-1-hydroxy-1-(trifluoromethyl)ethyl)-2-pyrimidinyl)-2-piperazinyl)methyl)-3-oxa-8-azabicyclo[3.2.1]octan-6-ol]
The pEC50 of the first is 0.85 log units higher: 7.72 for the first, 6.87 for the second. The first is the more potent here.

`C[C@H]1COCCN1C[C@H]1CN(S(=O)(=O)c2cccs2)CCN1c1ccc(C(O)(CO)C(F)(F)F)cc1` (mixture of isomers) [Example 83, 3,3,3-trifluoro-2-(4-((2S)-2-(((3S)-3-methyl-4-morpholinyl)methyl)-4-(2-thiophenylsulfonyl)-1-piperazinyl)phenyl)-1,2-propanediol] and `CC(C)C1C(=O)NCCN1C[C@H]1CN(S(=O)(=O)c2ccc(N)s2)CCN1c1ncc(C(O)(C(F)(F)F)C(F)(F)F)cn1` (single isomer, unassigned) [Example 184 Peak #2] are within 0.2 log units of each other in pEC50: 7.72 for the first, 7.60 for the second.
